For one experiment, the system named is IL6, IL12, IL1b, TNFα. Put plainly: Cytokine production in LPS-stimulated BMDMs (ELISA). Format: cell-based, mouse. The conditions noted are these: then LPS; for LPS-induced cytokine production: BMDMs pretreated 12 h; for effect of co-treatment on DI-mediated inhibition of cytokine (IL6) production: agent added simultaneously with DI. On the procedure: (§1) BMDM were prepared from 6- to 12-week-old mice as described 1 and cultured in RMPI-1640 medium supplemented with 10% fetal bovine serum (FBS), 2 mM L-glutamine, and 100 U/mL penicillin-streptomycin and mouse recombinant M-CSF ([…], Peprotech). For experiments, cells were seeded at concentration 10^6 cells/mL in tissue culture plates of various formats. The cells were treated with DI (250 μM (unless stated otherwise), cat #592498, Sigma), DMF (50 μM (unless stated otherwise), cat #242926, Sigma), 3-(ethoxycarbonyl)but-3-enoic acid (3MI, 5 μM, Aris Pharmaceuticals Inc.), 4-ethoxy-2-methylene-4-oxobutanoic acid (MI, Aris Pharmaceuticals Inc.) for 12 h and activated with lipopolysaccharide (LPS; 100 ng/mL; E. coli 0111:B4, Sigma) for 1 h or as indicated. In some experiments cells were stimulated with combination of LPS (20 ng/mL) and IFN-γ (50 ng/mL; Peprotech). In some experiments cells were treated with α-tocopherol (AT, 10 μM; Sigma), MitoTEMPO (MT, 500 μM; Sigma), N-acetylcysteine (NAC, 1 mM, Sigma), ethylester of GSH (EtGSH; 1 mM, Santa Cruz) or buthionene sulfoximine (BSO, 500 μM, Sigma) alone or in combination with DI for 12 h. In some experiments BMDMs were treated with DI for 12 h and bafilomycin A (BafA, 100 nM, Sigma) or MG132 (10 μM, Selleckchem) were added 30 min before subsequent LPS stimulation.
Cytokines in cell supernatants were analyzed using DuoSet® ELISA kits according to manufacturer protocol (R&D Systems). The supernatants from BMDMs were diluted 1:4, from human blood monocytes 1:3.
In general terms: An ELISA detects its analyte on a solid surface through an enzyme-linked reagent.

The subject of another experiment is Nrf2. Put plainly: Nrf2 response in BMDMs (western blot, target genes). The experiment is classed as cell-based, mouse. The conditions noted are these: 12 h treatment. As to the method:
as §1, with “In some experiments BMDMs were treated with DI for 12 h and bafilomycin A (BafA, 100 nM, Sigma) or MG132 (10 μM, Selleckchem) were added 30 min before subsequent LPS stimulation.” left out
(§2) Cells were lysed in RIPA Lysis Buffer System (Santa Cruz) and heat-denatured at 95° C. for 5 min in reducing sample buffer (BioRad). […] Non-specific binding was blocked with 5% skim milk (or 5% BSA when phospho-proteins were analyzed), and membranes were probed with primary antibodies specific to Nrf2 (#12721), HO-1 (#70081), IκBζ (mouse specific, #93726), IκBζ(#9244), ATF3 (#D2Y5W), IRAK1 (#4504; sensitivity of IRAK1 detection diminishes upon IRAK1 K63 ubiquitination), phospho-IKK (Ser176/180, #2697), p62/SQSTM1 (#5114), phospho-eIF2α (Ser51, #9721), eIF2α (#5324) from Cell Signaling; GAPDH (sc-25778), IκBα (sc-1643), ATF3 (sc-188), SDHA (sc-166909) from Santa Cruz; NQO1 (ab28947) from Abeam, followed by incubation with anti-rabbit-HRP (1:10,000; sc-2030) or anti-mouse-HRP (1:10,000; sc-2031) from Santa Cruz and Clarity western ECL substrate (Bio-Rad). […]
In general terms: Immunoblotting shows a protein as a band on a membrane.

The subject of experiment [1] is IκBζ. Put plainly: LPS-induced Ikb-ζ protein induction in BMDMs (western blot). The experiment is classed as cell-based, mouse. The conditions noted are these: for effect of added agent on Ikb-ζ induction in DI-treated cells: DI 12 h plus agent; for LPS-induced Ikb-ζ induction, protein level: BMDMs treated with compound 12 h, then LPS 100 ng/ml. On the procedure: as §1
Cells were lysed in RIPA Lysis Buffer System (Santa Cruz) and heat-denatured at 95° C. for 5 min in reducing sample buffer (BioRad). Proteins were separated on 4%-20% polyacrylamide gradient gels (BioRad) and transferred onto 0.45 μm pore size PVDF membranes (Millipore). Non-specific binding was blocked with 5% skim milk (or 5% BSA when phospho-proteins were analyzed), and membranes were probed with primary antibodies specific to Nrf2 (#12721), HO-1 (#70081), IκBζ (mouse specific, #93726), IκBζ(#9244), ATF3 (#D2Y5W), IRAK1 (#4504; sensitivity of IRAK1 detection diminishes upon IRAK1 K63 ubiquitination), phospho-IKK (Ser176/180, #2697), p62/SQSTM1 (#5114), phospho-eIF2α (Ser51, #9721), eIF2α (#5324) from Cell Signaling; GAPDH (sc-25778), IκBα (sc-1643), ATF3 (sc-188), SDHA (sc-166909) from Santa Cruz; NQO1 (ab28947) from Abeam, followed by incubation with anti-rabbit-HRP (1:10,000; sc-2030) or anti-mouse-HRP (1:10,000; sc-2031) from Santa Cruz and Clarity western ECL substrate (Bio-Rad). Membranes were exposed to X-Ray films (Research Products International Corp.) and developed using SRX-101A film processor (Konica Minolta). GAPDH run on the same blot was used as loading control. After scanning of original films image brightness of some blots was adjusted and bands were cropped using ImageJ. Densitometry was performed using ImageJ.

Another experiment relates to ATF3. Put plainly: ATF3 protein expression (western blot). The experiment is classed as cell-based, mouse. The conditions noted are these: mouse macrophages and human monocytes, DI plus agent. As to the method: as §1, with “In some experiments BMDMs were treated with DI for 12 h and bafilomycin A (BafA, 100 nM, Sigma) or MG132 (10 μM, Selleckchem) were added 30 min before subsequent LPS stimulation.” left out
as §2

A further experiment relates to STAT3. Put plainly: STAT3 activation in LPS-stimulated BMDMs (western blot). The conditions noted are these: BMDMs, 12 h pretreatment. Format: cell-based, mouse. As to the method: as §1, with “In some experiments BMDMs were treated with DI for 12 h and bafilomycin A (BafA, 100 nM, Sigma) or MG132 (10 μM, Selleckchem) were added 30 min before subsequent LPS stimulation.” left out
as §2

For a further experiment, the system named is HBL1 cells line (ABC). The experiment is described as follows: DLBCL cell viability, resazurin assay, ABC subtype. The experiment is classed as cell-based. The conditions noted are these: HBL1, 4 days, refreshed daily; DI 125-250 μM. (In general: The colour change of resazurin is a common sign of viable cells or microbes.)
Experiment [2] has as its system LY1 and LY7 (GCB) cell lines. The experiment is described as follows: DLBCL cell viability, resazurin assay, GCB subtype. The experiment is classed as cell-based. The conditions noted are these: LY1 and LY7, 4 days, refreshed daily; DI 125-250 μM.
Experiment [3] deals with IκBζ. Put plainly: Ikb-ζ protein in LPS-stimulated human monocytes (western blot). To be noted: human blood monocytes, DI plus agent, LPS 1 h. Format: cell-based. On the procedure:
Cells were lysed in RIPA Lysis Buffer System (Santa Cruz) and heat-denatured at 95° C. for 5 min in reducing sample buffer (BioRad). Proteins were separated on 4%-20% polyacrylamide gradient gels (BioRad) and transferred onto 0.45 μm pore size PVDF membranes (Millipore). Non-specific binding was blocked with 5% skim milk (or 5% BSA when phospho-proteins were analyzed), and membranes were probed with primary antibodies specific to Nrf2 (#12721), HO-1 (#70081), IκBζ (mouse specific, #93726), IκBζ(#9244), ATF3 (#D2Y5W), IRAK1 (#4504; sensitivity of IRAK1 detection diminishes upon IRAK1 K63 ubiquitination), phospho-IKK (Ser176/180, #2697), p62/SQSTM1 (#5114), phospho-eIF2α (Ser51, #9721), eIF2α (#5324) from Cell Signaling; GAPDH (sc-25778), IκBα (sc-1643), ATF3 (sc-188), SDHA (sc-166909) from Santa Cruz; NQO1 (ab28947) from Abeam, followed by incubation with anti-rabbit-HRP (1:10,000; sc-2030) or anti-mouse-HRP (1:10,000; sc-2031) from Santa Cruz and Clarity western ECL substrate (Bio-Rad). […]
Blood from healthy donors was acquired from LRS chambers supplied by the Mississippi Valley Regional Blood Center. […] After extensive washes to allow removal of non-adherent cells, monocytes (>95% purity) were harvested, counted and 5×10^5 cells were plated per well in 24-well plates. […]

Entries after “also recorded” stand apart in the source; their conditions may differ. Structures can show the parent of a compound that is named as a salt. Where a SMILES comes first, the peptide text is derived from it. The star is where a group is joined. Cbz = O=C(OCc1ccccc1)*

As for `CCCCS(=N)(=O)CCC(N)C(=O)O` (stereo not shown) [BSO, buthionine sulfoximine, reference compound], in the experiment with IL6, IL12, IL1b, TNFα, the LPS-induced cytokine production result is listed as “does not inhibit cytokine production”. The “Nrf2 response (Nrf2 protein, target genes)” value in the experiment with Nrf2 is listed as “nor trigger Nrf2 response”.
Consider `CO/C1=C\C(C)=C\[C@@H](C)[C@@H](O)[C@@H](C)C/C(C)=C/C=C/[C@H](OC)[C@@H]([C@@H](C)[C@@H](O)[C@H](C)[C@@]2(O)C[C@@H](O)[C@H](C)[C@@H](C(C)C)O2)OC1=O` [bafilomycin A, reference compound], for which the “effect of added agent on Ikb-ζ induction in DI-treated cells” value (shortened to “effect of added agent on Ikb-ζ induction”) in the experiment on IκBζ [1] (BMDMs, LPS) is “neither rescued IκBζ induction”.
Take `CC(=O)N[C@@H](CS)C(=O)O` [NAC, N-acetylcysteine]: the “effect of co-treatment on DI-mediated inhibition of cytokine (IL6) production” value in the experiment on IL6, IL12, IL1b, TNFα was “completely abrogated effect of DI when added simultaneously with DI”; with IL6, IL12, IL1b, TNFα (listed as N-acetylcysteine) it was “reversed the effect of DI”. Further, the “effect of added agent on Ikb-ζ induction” value in the experiment on IκBζ [1] (BMDMs, LPS) is listed as “restored Ikb-ζ production; also recorded: restored LPS-mediated IκBζ induction”. For the same molecule, the “DI-mediated ATF3 expression upon co-treatment” value in the experiment on ATF3 was “efficiently decreased”.
As for `C=C(CC(=O)O)C(=O)OCC` [3MI, 3-(ethoxycarbonyl)but-3-enoic acid], the “LPS-induced Ikb-ζ induction, protein level” value (“LPS-induced Ikb-ζ induction” for short) with IκBζ [1] is “inhibited IκBζ induction”.
In the case of `CC(C)C[C@@H](C=O)NC(=O)[C@H](CC(C)C)NC(=O)[C@H](CC(C)C)NC(=O)OCc1ccccc1` [MG132, reference compound] (Cbz-Leu-Leu-Leu-aldehyde), the “effect of added agent on Ikb-ζ induction” value in the experiment on IκBζ [1] (BMDMs, LPS) is “did not affect Ikb-ζ levels; also recorded: neither rescued IκBζ induction”.
As for `COC(=O)/C=C/C(=O)OC` [DMF, Dimethyl fumarate, reference compound], in the experiment with IL6, IL12, IL1b, TNFα, the LPS-induced cytokine production result is “inhibit IL6 but not TNF production; also recorded: selective inhibition of IL-6”. Also, the “Nrf2 response (Nrf2 protein, target genes)” value in the experiment with Nrf2 is “triggered Nrf2 response”. In addition, in the experiment on STAT3, the “STAT3 activation (Y705 phosphorylation)” value is “effective to inhibit STAT3 activation”. The “LPS-induced Ikb-ζ induction” value in the experiment on IκBζ [1] is recorded as “strongly inhibited Ikb-ζ induction; also recorded: inhibited IκBζ induction”.
As for `CN1CCCC(CN2c3ccccc3Sc3ccccc32)C1` (stereo not shown) [Mepazine, mepazine, reference compound], the “growth / toxicity, ABC DLBCL” value in the experiment with HBL1 cells line (ABC) is recorded as “inhibited growth of HBL1”. Moreover, in experiment [2], the “growth / toxicity, GCB DLBCL” value is “not LY1 and LY7”.
For the molecule `COC(=O)CC(=O)OC` [DM, Dimethyl malonate, reference compound], in the experiment with IκBζ [1], the “LPS-induced Ikb-ζ induction” value was “does not affect Ikbζ expression”.
For the molecule `C=C(CC(=O)OCC)C(=O)O` [MI, 4-ethoxy-2-methylene-4-oxobutanoic acid], the “LPS-induced Ikb-ζ induction” value in the experiment with IκBζ [1] is “did not”. Also, the “effect on IκBζ/IL-6 in combination with BSO” value in the experiment on IκBζ [1] (BMDMs, compound plus BSO 500 μM, LPS) was “unlocked the effect”.
Regarding `CCOC(=O)CNC(=O)[C@H](CS)NC(=O)CC[C@H](N)C(=O)O` [EtGSH, ethylester of GSH, reference compound], the “effect of co-treatment on DI-mediated inhibition of cytokine (IL6) production” value with IL6, IL12, IL1b, TNFα is reported as “reversed the effect of DI”. The “effect of co-treatment on IκBζ induction in DI-treated cells” value with IκBζ [3] was “restored LPS-mediated IκBζ induction”. In addition, the “effect of added agent on Ikb-ζ induction” value in the experiment on IκBζ [1] (BMDMs, LPS) is “restored LPS-mediated IκBζ induction”. For the same molecule, in the experiment on ATF3, the “DI-mediated ATF3 expression upon co-treatment” value was “efficiently decreased”.

(Values after patent US20200375929A1, “METHODS AND COMPOSITIONS FOR THE TREATMENT OF DISEASES ASSOCIATED WITH CANCER, INFLAMMATION, OR IMMUNE RESPONSE” (Washington University, priority 2017, published 2020).)
